Measurements as given in patent US20260028326A1, “COMPOUND BASED ON ISOINDOLINE-SUBSTITUTED GLUTARIMIDE BACKBONE AND USE THEREOF” (GLUETACS THERAPEUTICS (SHANGHAI) CO., LTD., priority 2022, published 2026).

Experiments:
CCRF-CEM cells = assay: Tumor cell proliferation IC50 (CCK-8), CCRF-CEM; settings: Homo sapiens, 96 h, read-out: IC50 for inhibiting the proliferation of tumor cells, CCRF-CEM;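 further: cell viability measured with CCK-8 reagent after compound treatment, IC50 taken from plotted growth inhibition curves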
MM.1S cells = assay: Tumor cell proliferation IC50 (CCK-8), MM.1S; settings: Homo sapiens, MM1.S, 72 h, read-out: IC50 for inhibiting the proliferation of tumor cells, MM.1S;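 further: viability of cultured cells read by CCK-8 reagent after compound exposure, growth inhibition curves fitted to derive IC50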
MV-4-11 cells = assay: Tumor cell proliferation IC50 (CCK-8), MV-4-11; settings: Homo sapiens, MV4-11, 96 h, read-out: IC50 for inhibiting the proliferation of tumor cells, MV-4-11
Experimental: (§1) The tumor cells used herein were cultured in a cell culture medium listed in table A at 37° C. in an incubator with 5% CO2.
(§2) After the cells were treated with the compounds of the present disclosure for a period of time, the cell viability detection reagent was added to the culture medium for cell viability assessment according to the instructions provided with the CCK-8 kit. […] The growth inhibition of the compounds of the present disclosure on cells was plotted by Prism Graphpad software, and the IC50 values of the compounds of the present disclosure were calculated therefrom.

Kasumi-1 cells = assay: Tumor cell proliferation IC50 (CCK-8), Kasumi-1; settings: Homo sapiens, Kasumi 1, 72 h, read-out: IC50 for inhibiting the proliferation of tumor cells, Kasumi-1
Experimental: as §1, §2

IKZF1 protein = IKZF1 protein (Homo sapiens (Human), UniProt Q13422+Q96SW2); assay: Western-blot assay of substrate protein degradation in hPBMC, IKZF1; format: cell-based; settings: hPBMC cells, compound 500 nM, 24 hours, Western blot
Sequence of IKZF1 protein (Q13422 whole entry): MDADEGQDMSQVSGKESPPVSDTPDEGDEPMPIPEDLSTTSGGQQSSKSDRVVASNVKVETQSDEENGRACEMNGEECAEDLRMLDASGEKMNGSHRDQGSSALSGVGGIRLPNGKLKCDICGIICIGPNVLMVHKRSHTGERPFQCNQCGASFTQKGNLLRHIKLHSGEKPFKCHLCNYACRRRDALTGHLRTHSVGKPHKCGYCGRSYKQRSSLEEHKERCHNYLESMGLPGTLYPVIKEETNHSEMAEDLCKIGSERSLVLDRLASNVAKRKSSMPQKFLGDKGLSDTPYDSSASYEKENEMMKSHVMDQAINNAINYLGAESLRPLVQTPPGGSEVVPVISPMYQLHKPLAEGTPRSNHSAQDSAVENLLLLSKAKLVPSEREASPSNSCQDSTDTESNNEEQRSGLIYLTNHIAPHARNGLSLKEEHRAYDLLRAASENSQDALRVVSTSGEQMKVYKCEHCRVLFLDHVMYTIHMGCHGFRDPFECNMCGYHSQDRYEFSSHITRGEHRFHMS
Sequence of IKZF1 protein (Q96SW2 whole entry): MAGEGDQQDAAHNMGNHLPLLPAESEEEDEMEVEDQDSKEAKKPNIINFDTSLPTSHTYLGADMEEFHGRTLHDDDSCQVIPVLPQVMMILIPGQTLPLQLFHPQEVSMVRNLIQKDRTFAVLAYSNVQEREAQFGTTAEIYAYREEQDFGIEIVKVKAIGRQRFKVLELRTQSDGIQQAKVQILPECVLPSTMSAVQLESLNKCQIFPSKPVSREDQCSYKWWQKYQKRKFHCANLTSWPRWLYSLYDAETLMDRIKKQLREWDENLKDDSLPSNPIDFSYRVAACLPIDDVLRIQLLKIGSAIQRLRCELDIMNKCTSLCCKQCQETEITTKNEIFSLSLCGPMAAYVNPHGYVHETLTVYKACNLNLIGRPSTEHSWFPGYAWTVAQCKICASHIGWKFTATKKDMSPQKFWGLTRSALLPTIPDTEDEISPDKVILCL
Sequence of IKZF1 protein (Q16531 whole entry partner): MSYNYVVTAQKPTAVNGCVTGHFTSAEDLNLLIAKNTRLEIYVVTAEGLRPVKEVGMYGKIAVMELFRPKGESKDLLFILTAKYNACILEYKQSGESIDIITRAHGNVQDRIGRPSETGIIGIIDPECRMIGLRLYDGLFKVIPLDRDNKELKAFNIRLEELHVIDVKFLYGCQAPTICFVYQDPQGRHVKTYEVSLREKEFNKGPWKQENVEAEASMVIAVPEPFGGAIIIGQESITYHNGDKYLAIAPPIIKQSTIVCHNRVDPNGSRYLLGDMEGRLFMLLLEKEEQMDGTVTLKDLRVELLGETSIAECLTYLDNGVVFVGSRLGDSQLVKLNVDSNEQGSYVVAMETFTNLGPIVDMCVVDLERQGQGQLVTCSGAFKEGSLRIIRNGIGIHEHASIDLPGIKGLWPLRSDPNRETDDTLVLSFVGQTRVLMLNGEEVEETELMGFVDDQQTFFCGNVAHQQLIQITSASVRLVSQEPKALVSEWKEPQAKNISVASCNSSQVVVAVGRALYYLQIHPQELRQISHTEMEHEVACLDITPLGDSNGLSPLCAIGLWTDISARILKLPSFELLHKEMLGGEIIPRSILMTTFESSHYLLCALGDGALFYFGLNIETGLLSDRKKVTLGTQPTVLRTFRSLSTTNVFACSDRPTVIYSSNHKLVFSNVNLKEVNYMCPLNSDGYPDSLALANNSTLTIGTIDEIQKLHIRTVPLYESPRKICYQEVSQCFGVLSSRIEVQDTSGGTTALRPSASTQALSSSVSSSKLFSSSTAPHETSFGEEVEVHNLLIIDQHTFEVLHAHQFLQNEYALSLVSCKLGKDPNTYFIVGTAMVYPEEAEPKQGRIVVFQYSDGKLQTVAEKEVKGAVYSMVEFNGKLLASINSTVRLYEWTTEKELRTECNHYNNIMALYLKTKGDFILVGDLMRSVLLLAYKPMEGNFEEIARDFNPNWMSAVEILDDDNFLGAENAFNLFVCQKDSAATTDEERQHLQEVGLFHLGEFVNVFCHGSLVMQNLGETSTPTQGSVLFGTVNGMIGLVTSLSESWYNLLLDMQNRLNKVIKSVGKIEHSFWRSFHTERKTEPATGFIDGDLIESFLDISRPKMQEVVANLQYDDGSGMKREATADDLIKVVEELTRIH

Mino cells = assay: Tumor cell proliferation IC50 (CCK-8), Mino; settings: Homo sapiens, 72 h, read-out: IC50 for inhibiting the proliferation of tumor cells, Mino;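 further: cell viability assessed with CCK-8 reagent after compound exposure, IC50 derived from plotted growth inhibition curves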
Daudi cells = assay: Tumor cell proliferation IC50 (CCK-8), Daudi; settings: Homo sapiens, read-out: IC50 for inhibiting the proliferation of tumor cells, Daudi;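 further: cell viability read with CCK-8 reagent after compound exposure of Daudi cells, IC50 derived from plotted growth inhibition curves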
GSPT1 protein = GSPT1 protein (Homo sapiens (Human), UniProt P15170+Q96SW2); assay: Western-blot assay of substrate protein degradation in hPBMC, GSPT1; format: cell-based; settings: hPBMC cells, compound 500 nM, 24 hours, Western blot
Sequence of GSPT1 protein (P15170 whole entry): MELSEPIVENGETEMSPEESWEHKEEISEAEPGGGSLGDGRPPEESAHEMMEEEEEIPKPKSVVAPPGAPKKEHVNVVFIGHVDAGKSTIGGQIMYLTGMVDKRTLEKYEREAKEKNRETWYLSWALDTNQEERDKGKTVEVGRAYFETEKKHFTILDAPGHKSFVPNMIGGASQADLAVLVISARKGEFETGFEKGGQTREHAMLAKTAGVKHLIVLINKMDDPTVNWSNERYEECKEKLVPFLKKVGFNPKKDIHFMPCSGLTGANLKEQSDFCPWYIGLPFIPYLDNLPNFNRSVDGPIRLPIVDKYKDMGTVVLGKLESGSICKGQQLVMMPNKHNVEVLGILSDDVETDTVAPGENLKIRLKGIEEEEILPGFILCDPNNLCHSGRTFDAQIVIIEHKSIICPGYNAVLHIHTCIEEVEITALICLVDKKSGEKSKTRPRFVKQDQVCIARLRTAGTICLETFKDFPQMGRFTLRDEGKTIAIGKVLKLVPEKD
Sequence of GSPT1 protein (Q96SW2 whole entry): as the sequence (Q96SW2 whole entry) above
Sequence of GSPT1 protein (Q16531 whole entry partner): as the sequence (Q16531 whole entry partner) above

[1] = target: human Cereblon WT GST-tagged protein (Homo sapiens (Human), UniProt Q96SW2); assay: CRBN-binding affinity, HTRF (CEREBLON BINDING kit)
Sequence of human Cereblon WT GST-tagged protein (Q96SW2 whole entry): as the sequence (Q96SW2 whole entry) above
How it was run: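 HTRF competition readout: compounds compete with a thalidomide-Re conjugate for GST-tagged wild-type human CRBN detected via Eu-labelled anti-GST antibody. Inhibition rate derived relative to protein-free blank wells.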

IKZF3 protein = IKZF3 protein (Homo sapiens (Human), UniProt Q96SW2+Q9UKT9); assay: Western-blot assay of substrate protein degradation in hPBMC, IKZF3; format: cell-based; settings: hPBMC cells, compound 500 nM, 24 hours, Western blot
Sequence of IKZF3 protein (Q9UKT9 whole entry): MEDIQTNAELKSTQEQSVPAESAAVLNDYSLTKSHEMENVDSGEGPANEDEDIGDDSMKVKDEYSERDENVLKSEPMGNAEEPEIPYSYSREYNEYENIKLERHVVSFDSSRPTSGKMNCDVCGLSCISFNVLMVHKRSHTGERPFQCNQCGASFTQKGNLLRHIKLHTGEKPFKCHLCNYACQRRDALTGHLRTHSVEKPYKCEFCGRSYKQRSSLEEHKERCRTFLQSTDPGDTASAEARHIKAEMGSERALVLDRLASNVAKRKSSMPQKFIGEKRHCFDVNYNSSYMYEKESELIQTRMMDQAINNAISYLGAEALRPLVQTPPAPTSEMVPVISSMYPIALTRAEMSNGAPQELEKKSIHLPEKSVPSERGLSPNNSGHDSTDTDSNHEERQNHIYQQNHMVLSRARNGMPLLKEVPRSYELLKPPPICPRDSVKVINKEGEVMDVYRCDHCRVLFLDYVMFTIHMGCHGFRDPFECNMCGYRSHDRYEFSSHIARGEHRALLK
Sequence of IKZF3 protein (Q96SW2 whole entry): as the sequence (Q96SW2 whole entry) above
Sequence of IKZF3 protein (Q16531 whole entry partner): as the sequence (Q16531 whole entry partner) above

[2] = Pharmacokinetic study, oral administration, mouse plasma; format: in vivo, mice
Experimental: The experimental animals used can be those commonly used in pharmacokinetic experiments, e.g., adult and healthy rodents (e.g., mice, rats (such as Sprague-Dawley (SD) rats), guinea pigs) or non-rodents (rabbits, dogs, and monkeys). In the present disclosure, mice were used as the experimental animals.
The experimental animals were divided into two groups: a control group (for collecting blank plasma) and an orally administered group (dosed at 10 mg/kg or 30 mg/kg). Blood samples were collected at predetermined sampling time points after administration, such as 0.25 h, 0.5 h, 1 h, 2 h, 4 h, 8 h, and 24 h post-dosing. Blank plasma was collected from the control group.
Plasma samples were preprocessed before analysis: 10 μL of 50% acetonitrile and 200 μL of internal standard solution (containing 50 ng/mL dexamethasone in acetonitrile) were added to 10 μL of plasma samples. For the blank control group, the same volume of acetonitrile was added instead of the internal standard. The processed samples were vortexed, centrifuged, and the supernatant was taken for LC-MS/MS injection analysis.
After preparing standard curves and quality control (QC) samples, the concentrations of the compounds in the plasma samples were determined by LC-MS/MS analysis. Based on the plasma concentration data obtained from LC-MS/MS analysis, the pharmacokinetic parameters of the test compounds were calculated using the non-compartmental model in the pharmacokinetic calculation software WinNonlin v8.1.

MDA-MB-231 cells = assay: Tumor cell proliferation IC50 (CCK-8), MDA-MB-231; settings: Homo sapiens, MDA-MB-231, 96 h, read-out: IC50 for inhibiting the proliferation of tumor cells, MDA-MB-231
Experimental: Prior to experimentation, all cells used were correctly identified by STR profiling, and tested negative for mycoplasma through routine screenings.
as §2

Compound | IC50 (CCRF-CEM cells) [nM] | IC50 (MM.1S cells) [nM] | IC50 (MV-4-11 cells) [nM] | IC50 (Kasumi-1 cells) [nM] | residual substrate protein level, IKZF1 (IKZF1 protein) | IC50 (Mino cells) [nM] | IC50 (Daudi cells) [nM] | residual substrate protein level, GSPT1 (GSPT1 protein) | IC50 [1] [nM] | residual substrate protein level, IKZF3 (IKZF3 protein) | AUC(0-t) ([2]; p.o. 10 mg/kg) [ng·h/mL] | IC50 (MDA-MB-231 cells) [nM] | AUC(0-t) ([2]; p.o. 30 mg/kg) [ng·h/mL]
O=C1CCC(N2Cc3cc(C=C4CN(C(=O)c5ccccc5-c5ccc(Cl)cc5)C4)ccc3C2=O)C(=O)N1 (stereo not shown) [GT-05482, 3-(5-((1-(4′-chloro-[1,1′-biphenyl]-2-carbonyl)azetidin-3-ylidene)methyl)-1-oxoisoindolin-2-yl)piperidine-2,6-dione] | 5 to 10 | 5 to 10 | 5 to 10 | 10 to 50 | B (B represents a residual substrate protein level of >50%) | 5 to 10 | 10 to 50 | A (A represents a residual substrate protein level of <50%) | 330 | B (B represents a residual substrate protein level of >50%) | – | – | –
CC1(C)CCC(CN2CCN(Cc3cc4c(cc3F)C(=O)N(C3CCC(=O)NC3=O)C4)CC2)=C(c2ccc(F)cc2)C1 (stereo not shown) [GT-05391, 3-(6-fluoro-5-((4-((4′-fluoro-5,5-dimethyl-3,4,5,6-tetrahydro-[1,1′-biphenyl]-2-yl)methyl)piperazin-1-yl)methyl)-1-oxoisoindolin-2-yl)piperidine-2,6-dione] | < 5 | 5 to 10 | < 5 | 10 to 50 | A (A represents a residual substrate protein level of <50%) | 5 to 10 | 10 to 50 | A (A represents a residual substrate protein level of <50%) | 570 | A (A represents a residual substrate protein level of <50%) | – | – | –
O=C1CCC(N2C(=O)c3ccc(CN4CCN(Cc5ccccc5-c5ccc(Cl)cc5)CC4)cc3C2=O)C(=O)N1 (stereo not shown) [GT-05497, 5-((4-((4′-chloro-[1,1′-biphenyl]-2-yl)methyl)piperazin-1-yl)methyl)-2-(2,6-dioxopiperidin-3-yl)isoindoline-1,3-dione] | 50 to 100 | 100 to 500 | 100 to 500 | 100 to 500 | B (B represents a residual substrate protein level of >50%) | 100 to 500 | 500 to 1000 | A (A represents a residual substrate protein level of <50%) | – | A (A represents a residual substrate protein level of <50%) | – | – | –
CC1(C)CCC(CN2CC3CCC(C2)N3Cc2cc3c(cc2F)C(=O)N(C2CCC(=O)NC2=O)C3)=C(c2ccc(Cl)cc2)C1 (stereo not shown) [GT-05494, 3-(5-((3-((4′-chloro-5,5-dimethyl-3,4,5,6-tetrahydro-[1,1′-biphenyl]-2-yl)methyl)-3,8-diazabicyclo[3.2.1]octan-8-yl)methyl)-6-fluoro-1-oxoisoindolin-2-yl)piperidine-2,6-dione] | 100 to 500 | 500 to 1000 | 100 to 500 | – | A (A represents a residual substrate protein level of <50%) | – | – | A (A represents a residual substrate protein level of <50%) | – | A (A represents a residual substrate protein level of <50%) | – | – | –
O=C1CCC(N2Cc3cc(CC4CCN(C(=O)c5ccccc5-c5ccc(Cl)cc5)CC4)ccc3C2=O)C(=O)N1 (stereo not shown) [GT-05467, 3-(5-((1-(4′-chloro-[1,1′-biphenyl]-2-carbonyl)piperidin-4-yl)methyl)-1-oxoisoindolin-2-yl)piperidine-2,6-dione] | 5 to 10 | 10 to 50 | 10 to 50 | 10 to 50 | B (B represents a residual substrate protein level of >50%) | 10 to 50 | 100 to 500 | A (A represents a residual substrate protein level of <50%) | 520 | B (B represents a residual substrate protein level of >50%) | – | – | –
O=C1CCC(N2Cc3cc(CC4CN(C(=O)c5ccccc5-c5ccc(Cl)cc5)C4)ccc3C2=O)C(=O)N1 (stereo not shown) [GT-03922, 3-(5-((1-(4′-chloro-[1,1′-biphenyl]-2-carbonyl)azetidin-3-yl)methyl)-1-oxoisoindolin-2-yl)piperidine-2,6-dione] | – | – | – | – | A (A represents a residual substrate protein level of <50%) | – | – | A (A represents a residual substrate protein level of <50%) | 160 | A (A represents a residual substrate protein level of <50%) | ≤ 500 | – | –
O=C1CCC(N2Cc3cc(CN4CCN(Cc5ccccc5-c5ccc(F)cc5)CC4)ccc3C2=O)C(=O)N1 (stereo not shown) [GT-04256, 3-(5-((4-((4′-fluoro-[1,1′-biphenyl]-2-yl)methyl)piperazin-1-yl)methyl)-1-oxoisoindolin-2-yl)piperidine-2,6-dione] | – | – | – | – | A (A represents a residual substrate protein level of <50%) | – | – | A (A represents a residual substrate protein level of <50%) | 1420 | A (A represents a residual substrate protein level of <50%) | ≤ 500 | – | –
CC1(C)CCC(CN2CCN(Cc3cc(F)c4c(c3)CN(C3CCC(=O)NC3=O)C4=O)CC2)=C(c2ccc(Cl)cc2)C1 (stereo not shown) [GT-03469, 3-(5-((4-((4′-chloro-5,5-dimethyl-3,4,5,6-tetrahydro-[1,1′-biphenyl]-2-yl)methyl)piperazin-1-yl)methyl)-7-fluoro-1-oxoisoindolin-2-yl)piperidine-2,6-dione] | 1000 to 5000 | – | – | – | – | – | – | – | 2120 | – | – | 100 to 500 | –
CC1(C)CCC(CN2CCN(Cc3ccc4c(c3F)CN(C3CCC(=O)NC3=O)C4=O)CC2)=C(c2ccc(F)cc2)C1 (stereo not shown) [GT-05390, 3-(4-fluoro-5-((4-((4′-fluoro-5,5-dimethyl-3,4,5,6-tetrahydro-[1,1′-biphenyl]-2-yl)methyl)piperazin-1-yl)methyl)-1-oxoisoindolin-2-yl)piperidine-2,6-dione] | 50 to 100 | 10 to 50 | 100 to 500 | – | A (A represents a residual substrate protein level of <50%) | 10 to 50 | – | A (A represents a residual substrate protein level of <50%) | 500 | A (A represents a residual substrate protein level of <50%) | – | – | –
CC1(C)CCC(CN2CCN(Cc3cccc4c3CN(C3CCC(=O)NC3=O)C4=O)CC2)=C(c2ccc(Cl)cc2)C1 (stereo not shown) [GT-03649, 3-(4-((4-((4′-chloro-5,5-dimethyl-3,4,5,6-tetrahydro-[1,1′-biphenyl]-2-yl)methyl)piperazin-1-yl)methyl)-1-oxoisoindolin-2-yl)piperidine-2,6-dione] | – | – | – | – | – | – | – | – | – | – | – | – | > 500
